# Measured values from ChEMBL document CHEMBL6096706, “Discovery of WDR5-MLL1 and HDAC Dual-Target Inhibitors for the Treatment of Acute Myeloid Leukemia” (J Med Chem, 2025).
# Columns and labels:
# [1] = test system: MV4-11; test: Antiproliferative activity against human MV4-11 cells assessed as growth inhibition at 0.5 uM measured after 72 hrs in presence of 0.4 uM of vorinostat by CellTiterGlo assay; assay type: functional; settings: read-out: GI
# [2] = test system: MV4-11; test: Antiproliferative activity against human MV4-11 cells assessed as growth inhibition at 0.05 uM measured after 72 hrs in presence of 0.1 uM of vorinostat by CellTiterGlo assay; assay type: functional; settings: read-out: GI
# [3] = test system: MV4-11; test: Induction of apoptosis in human MV4-11 cells assessed as early apoptotic cells at 600 nM incubated for 72 hrs in presence of vorinostat by Annexin V/PI staining based flow cytometry analysis (reference value: 0.76 %); assay type: functional
# [4] = test system: MV4-11; test: Antiproliferative activity against human MV4-11 cells assessed as growth inhibition at 1 uM measured after 72 hrs in presence of 0.05 uM of vorinostat by CellTiterGlo assay; assay type: functional; settings: read-out: GI
# [5] = test system: MV4-11; test: Antiproliferative activity against human MV4-11 cells assessed as growth inhibition at 0.2 uM measured after 72 hrs in presence of 0.2 uM of vorinostat by CellTiterGlo assay; assay type: functional; settings: read-out: GI
# [6] = test system: MV4-11; test: Antiproliferative activity against human MV4-11 cells assessed as growth inhibition at 1 uM measured after 72 hrs in presence of 0.1 uM of vorinostat by CellTiterGlo assay; assay type: functional; settings: read-out: GI
# [7] = test system: MV4-11; test: Antiproliferative activity against human MV4-11 cells assessed as growth inhibition at 0.1 uM measured after 72 hrs in presence of 1 uM of vorinostat by CellTiterGlo assay; assay type: functional; settings: read-out: GI
# [8] = test system: MV4-11; test: Antiproliferative activity against human MV4-11 cells assessed as growth inhibition at 2 uM measured after 72 hrs in presence of 0.5 uM of vorinostat by CellTiterGlo assay; assay type: functional; settings: read-out: GI
# [9] = test system: MV4-11; test: Antiproliferative activity against human MV4-11 cells assessed as growth inhibition at 2 uM measured after 72 hrs in presence of 0.4 uM of vorinostat by CellTiterGlo assay; assay type: functional; settings: read-out: GI
# [10] = test system: MV4-11; test: Antiproliferative activity against human MV4-11 cells assessed as growth inhibition at 0.4 uM measured after 72 hrs by CellTiterGlo assay; assay type: functional; settings: read-out: GI
# [11] = test system: MV4-11; test: Antiproliferative activity against human MV4-11 cells assessed as growth inhibition at 0.5 uM measured after 72 hrs in presence of 0.1 uM of vorinostat by CellTiterGlo assay; assay type: functional; settings: read-out: GI
# [12] = test system: MV4-11; test: Antiproliferative activity against human MV4-11 cells assessed as growth inhibition at 0.5 uM measured after 72 hrs in presence of 0.2 uM of vorinostat by CellTiterGlo assay; assay type: functional; settings: read-out: GI
# [13] = test system: MV4-11; test: Antiproliferative activity against human MV4-11 cells assessed as growth inhibition at 0.1 uM measured after 72 hrs in presence of 0.05 uM of vorinostat by CellTiterGlo assay; assay type: functional; settings: read-out: GI
# [14] = test system: MV4-11; test: Antiproliferative activity against human MV4-11 cells assessed as growth inhibition at 0.1 uM measured after 72 hrs in presence of 0.1 uM of vorinostat by CellTiterGlo assay; assay type: functional; settings: read-out: GI
# [15] = test system: MV4-11; test: Antiproliferative activity against human MV4-11 cells assessed as growth inhibition at 0.2 uM measured after 72 hrs by CellTiterGlo assay; assay type: functional; settings: read-out: GI
# [16] = test system: MV4-11; test: Induction of apoptosis in human MV4-11 cells assessed as early apoptotic cells at 200 nM incubated for 72 hrs in presence of vorinostat by Annexin V/PI staining based flow cytometry analysis (reference value: 0.76 %); assay type: functional
# [17] = test system: MV4-11; test: Induction of apoptosis in human MV4-11 cells assessed as viable cells at 200 nM incubated for 72 hrs by Annexin V/PI staining based flow cytometry analysis (reference value: 96.68%); assay type: functional; settings: read-out: Activity
# [18] = test system: MV4-11; test: Induction of apoptosis in human MV4-11 cells assessed as viable cells at 600 nM incubated for 72 hrs in presence of vorinostat by Annexin V/PI staining based flow cytometry analysis (reference value: 96.68%); assay type: functional; settings: read-out: Activity
# [19] = test system: MV4-11; test: Antiproliferative activity against human MV4-11 cells assessed as growth inhibition at 0.2 uM measured after 72 hrs in presence of 0.4 uM of vorinostat by CellTiterGlo assay; assay type: functional; settings: read-out: GI
# [20] = test system: MV4-11; test: Antiproliferative activity against human MV4-11 cells assessed as growth inhibition at 0.1 uM measured after 72 hrs in presence of 0.4 uM of vorinostat by CellTiterGlo assay; assay type: functional; settings: read-out: GI
# [21] = test system: MV4-11; test: Induction of apoptosis in human MV4-11 cells assessed as necrotic cells at 100 nmol/L incubated for 72 hrs by Annexin V/PI staining based flow cytometry analysis (reference value: 0.46%); assay type: functional
# [22] = target: T1, Histone deacetylase 11 (Homo sapiens, UniProt Q96DB2); test: Inhibition of HDAC11 (unknown origin) by fluorescence based assay
# T1 sequence (Q96DB2 whole entry): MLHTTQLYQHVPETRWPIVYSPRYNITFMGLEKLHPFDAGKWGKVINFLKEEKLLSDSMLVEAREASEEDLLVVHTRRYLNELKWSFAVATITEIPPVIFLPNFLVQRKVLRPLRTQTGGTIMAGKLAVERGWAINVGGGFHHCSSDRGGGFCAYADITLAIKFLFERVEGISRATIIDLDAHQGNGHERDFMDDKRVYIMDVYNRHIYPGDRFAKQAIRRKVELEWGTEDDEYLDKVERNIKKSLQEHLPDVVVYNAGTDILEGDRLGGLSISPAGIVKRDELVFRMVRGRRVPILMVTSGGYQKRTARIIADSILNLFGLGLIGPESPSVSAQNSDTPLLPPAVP
# [23] = target: Histone deacetylase 1 (Homo sapiens, UniProt Q13547); test: Inhibition of HDAC1 (unknown origin) by fluorescence based assay
# Sequence of Histone deacetylase 1 (Q13547 whole entry): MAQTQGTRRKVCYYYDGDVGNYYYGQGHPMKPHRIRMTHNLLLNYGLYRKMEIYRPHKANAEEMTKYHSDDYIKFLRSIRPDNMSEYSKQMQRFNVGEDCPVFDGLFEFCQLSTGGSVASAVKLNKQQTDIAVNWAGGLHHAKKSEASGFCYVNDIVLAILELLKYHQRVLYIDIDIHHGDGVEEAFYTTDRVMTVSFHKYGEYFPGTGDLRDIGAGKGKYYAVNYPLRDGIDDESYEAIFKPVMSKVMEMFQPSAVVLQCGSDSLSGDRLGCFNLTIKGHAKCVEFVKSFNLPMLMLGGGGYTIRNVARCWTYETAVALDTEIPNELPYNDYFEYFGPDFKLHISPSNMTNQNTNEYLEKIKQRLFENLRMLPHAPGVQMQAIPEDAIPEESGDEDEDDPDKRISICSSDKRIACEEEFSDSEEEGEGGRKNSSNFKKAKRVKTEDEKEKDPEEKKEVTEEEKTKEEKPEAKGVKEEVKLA
# [24] = target: T2, Histone deacetylase 8 (Homo sapiens, UniProt Q9BY41); test: Inhibition of HDAC8 (unknown origin) by fluorescence based assay
# T2 sequence (Q9BY41 whole entry): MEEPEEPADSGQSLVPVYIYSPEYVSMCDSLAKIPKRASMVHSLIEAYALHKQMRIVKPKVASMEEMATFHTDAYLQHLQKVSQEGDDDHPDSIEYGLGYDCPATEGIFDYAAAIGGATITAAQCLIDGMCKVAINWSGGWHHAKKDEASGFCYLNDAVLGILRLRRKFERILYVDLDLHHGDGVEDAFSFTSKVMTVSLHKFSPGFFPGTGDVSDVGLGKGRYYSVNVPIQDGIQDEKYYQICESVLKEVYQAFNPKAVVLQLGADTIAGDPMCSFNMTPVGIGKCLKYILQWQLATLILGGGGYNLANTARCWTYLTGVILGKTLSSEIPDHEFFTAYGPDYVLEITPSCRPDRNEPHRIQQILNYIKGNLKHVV
# [25] = test system: MV4-11; test: Antitumor activity against human MV4-11 cells xenografted in mouse assessed as tumor growth inhibition at 10 mg/kg, ip administered daily for 17 days; assay type: functional; settings: MV4-11, 408 h, time 17 day, read-out: TGI
# [26] = target: Histone-lysine N-methyltransferase 2A (Homo sapiens, UniProt Q03164); test: Inhibition of MLL1 (unknown origin) by fluorescence based assay
# Sequence of Histone-lysine N-methyltransferase 2A (Q03164 1-2718 limits assumed): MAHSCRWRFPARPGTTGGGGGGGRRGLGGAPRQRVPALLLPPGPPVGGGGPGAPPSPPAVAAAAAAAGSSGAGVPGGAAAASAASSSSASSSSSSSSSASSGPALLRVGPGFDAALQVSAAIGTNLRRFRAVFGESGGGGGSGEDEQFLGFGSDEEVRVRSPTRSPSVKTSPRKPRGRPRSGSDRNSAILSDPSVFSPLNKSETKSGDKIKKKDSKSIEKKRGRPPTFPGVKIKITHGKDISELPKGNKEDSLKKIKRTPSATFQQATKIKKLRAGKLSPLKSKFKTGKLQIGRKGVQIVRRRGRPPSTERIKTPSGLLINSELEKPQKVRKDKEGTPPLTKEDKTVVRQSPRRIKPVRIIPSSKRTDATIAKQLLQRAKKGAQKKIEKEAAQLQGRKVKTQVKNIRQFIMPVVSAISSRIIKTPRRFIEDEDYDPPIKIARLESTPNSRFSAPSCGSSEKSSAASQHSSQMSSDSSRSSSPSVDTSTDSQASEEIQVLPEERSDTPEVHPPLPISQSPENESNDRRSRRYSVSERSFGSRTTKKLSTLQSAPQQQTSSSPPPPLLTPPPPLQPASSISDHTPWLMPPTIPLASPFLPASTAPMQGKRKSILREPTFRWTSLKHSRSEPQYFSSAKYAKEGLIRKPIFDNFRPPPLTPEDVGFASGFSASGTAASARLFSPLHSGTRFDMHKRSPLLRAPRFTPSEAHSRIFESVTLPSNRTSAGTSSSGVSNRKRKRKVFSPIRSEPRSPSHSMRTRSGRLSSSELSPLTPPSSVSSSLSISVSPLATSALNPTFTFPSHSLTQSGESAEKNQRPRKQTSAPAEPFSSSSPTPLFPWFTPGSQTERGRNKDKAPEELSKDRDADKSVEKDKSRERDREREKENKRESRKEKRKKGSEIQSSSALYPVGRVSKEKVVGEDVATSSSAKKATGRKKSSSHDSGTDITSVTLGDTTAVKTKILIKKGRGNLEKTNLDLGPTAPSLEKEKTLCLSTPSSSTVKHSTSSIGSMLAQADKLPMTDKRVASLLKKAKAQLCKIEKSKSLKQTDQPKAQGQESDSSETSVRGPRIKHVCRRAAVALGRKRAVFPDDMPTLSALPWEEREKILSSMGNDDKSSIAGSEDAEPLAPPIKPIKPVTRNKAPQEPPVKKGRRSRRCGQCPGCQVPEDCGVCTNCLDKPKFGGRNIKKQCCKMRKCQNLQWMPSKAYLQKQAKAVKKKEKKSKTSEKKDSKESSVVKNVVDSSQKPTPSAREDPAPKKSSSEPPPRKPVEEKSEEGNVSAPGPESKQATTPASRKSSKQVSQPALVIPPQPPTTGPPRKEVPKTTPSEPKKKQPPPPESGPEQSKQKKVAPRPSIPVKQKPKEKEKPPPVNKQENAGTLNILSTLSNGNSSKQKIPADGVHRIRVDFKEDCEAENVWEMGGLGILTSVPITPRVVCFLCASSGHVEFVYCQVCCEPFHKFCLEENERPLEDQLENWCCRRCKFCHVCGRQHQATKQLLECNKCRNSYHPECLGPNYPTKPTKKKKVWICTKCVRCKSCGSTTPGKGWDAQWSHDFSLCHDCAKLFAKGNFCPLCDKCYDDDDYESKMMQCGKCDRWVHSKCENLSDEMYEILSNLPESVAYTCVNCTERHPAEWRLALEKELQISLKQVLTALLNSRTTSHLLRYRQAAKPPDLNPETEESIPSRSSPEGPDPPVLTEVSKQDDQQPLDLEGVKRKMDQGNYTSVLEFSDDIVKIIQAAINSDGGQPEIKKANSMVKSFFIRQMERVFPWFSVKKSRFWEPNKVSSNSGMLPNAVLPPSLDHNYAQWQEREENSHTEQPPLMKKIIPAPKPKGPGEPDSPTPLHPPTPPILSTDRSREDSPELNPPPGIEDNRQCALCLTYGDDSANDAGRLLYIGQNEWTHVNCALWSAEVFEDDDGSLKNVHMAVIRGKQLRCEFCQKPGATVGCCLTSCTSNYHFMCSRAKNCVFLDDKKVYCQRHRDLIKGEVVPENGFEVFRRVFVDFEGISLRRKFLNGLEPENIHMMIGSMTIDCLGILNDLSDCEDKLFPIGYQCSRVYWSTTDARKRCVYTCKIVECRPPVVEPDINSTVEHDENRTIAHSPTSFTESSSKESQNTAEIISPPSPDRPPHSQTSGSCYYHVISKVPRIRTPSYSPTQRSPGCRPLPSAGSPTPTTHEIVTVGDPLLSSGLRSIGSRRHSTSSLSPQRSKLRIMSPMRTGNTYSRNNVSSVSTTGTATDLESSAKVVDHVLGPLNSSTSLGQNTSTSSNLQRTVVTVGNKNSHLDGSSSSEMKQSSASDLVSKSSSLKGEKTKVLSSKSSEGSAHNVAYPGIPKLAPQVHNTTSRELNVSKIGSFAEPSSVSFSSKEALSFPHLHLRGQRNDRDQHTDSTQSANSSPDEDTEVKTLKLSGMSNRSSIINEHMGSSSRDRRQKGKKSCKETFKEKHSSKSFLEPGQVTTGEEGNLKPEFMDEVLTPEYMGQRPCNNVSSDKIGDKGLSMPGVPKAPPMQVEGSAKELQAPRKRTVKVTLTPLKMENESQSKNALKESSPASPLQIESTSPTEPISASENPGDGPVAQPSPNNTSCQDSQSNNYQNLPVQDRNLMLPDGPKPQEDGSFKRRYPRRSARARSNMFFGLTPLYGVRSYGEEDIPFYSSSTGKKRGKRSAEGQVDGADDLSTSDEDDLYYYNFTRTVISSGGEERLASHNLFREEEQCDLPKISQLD
# Sequence of Histone-lysine N-methyltransferase 2A (Q03164 2719-3969 limits assumed): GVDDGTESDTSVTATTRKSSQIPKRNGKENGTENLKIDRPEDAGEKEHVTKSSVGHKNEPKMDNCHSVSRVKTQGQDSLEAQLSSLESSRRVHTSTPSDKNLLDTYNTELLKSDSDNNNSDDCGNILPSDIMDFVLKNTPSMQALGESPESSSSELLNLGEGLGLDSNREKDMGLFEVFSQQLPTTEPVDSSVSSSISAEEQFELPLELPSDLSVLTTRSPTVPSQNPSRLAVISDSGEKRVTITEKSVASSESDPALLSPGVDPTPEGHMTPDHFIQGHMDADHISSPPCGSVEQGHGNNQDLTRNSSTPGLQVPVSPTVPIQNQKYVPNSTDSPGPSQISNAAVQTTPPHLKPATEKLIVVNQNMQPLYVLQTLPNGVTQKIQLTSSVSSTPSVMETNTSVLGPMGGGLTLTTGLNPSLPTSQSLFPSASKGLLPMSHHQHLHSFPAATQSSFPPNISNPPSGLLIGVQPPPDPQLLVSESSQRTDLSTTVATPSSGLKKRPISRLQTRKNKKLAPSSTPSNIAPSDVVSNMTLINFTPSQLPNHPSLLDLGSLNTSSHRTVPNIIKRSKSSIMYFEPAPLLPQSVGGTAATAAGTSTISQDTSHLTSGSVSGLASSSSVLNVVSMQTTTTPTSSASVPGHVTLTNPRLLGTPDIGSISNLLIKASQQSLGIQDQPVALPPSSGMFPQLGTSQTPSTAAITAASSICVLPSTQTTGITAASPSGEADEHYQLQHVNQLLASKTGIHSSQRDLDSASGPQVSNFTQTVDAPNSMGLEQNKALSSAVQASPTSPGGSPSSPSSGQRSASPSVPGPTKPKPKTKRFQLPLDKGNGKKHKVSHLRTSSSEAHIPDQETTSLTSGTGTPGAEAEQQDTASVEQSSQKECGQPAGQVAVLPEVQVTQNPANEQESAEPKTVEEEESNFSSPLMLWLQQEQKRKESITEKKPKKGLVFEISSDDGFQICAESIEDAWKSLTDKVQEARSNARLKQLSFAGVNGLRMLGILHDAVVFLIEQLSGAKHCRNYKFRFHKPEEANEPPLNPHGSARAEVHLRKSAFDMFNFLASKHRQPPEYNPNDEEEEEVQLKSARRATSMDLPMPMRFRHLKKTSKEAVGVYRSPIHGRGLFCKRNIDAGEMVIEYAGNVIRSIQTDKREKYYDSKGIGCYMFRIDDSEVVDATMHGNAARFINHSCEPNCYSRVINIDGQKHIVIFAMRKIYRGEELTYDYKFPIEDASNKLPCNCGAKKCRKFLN
# [27] = test system: MOLM-13; test: cells; assay type: functional, cell-based; settings: Homo sapiens, MOLM-13, 72 h
# Description: Antiproliferative activity against human MOLM-13 cells assessed as inhibition of cell growth measured after 72 hrs by CellTiterGlo assay
# [28] = target: Histone deacetylase 3 (Homo sapiens, UniProt O15379); test: Inhibition of HDAC3 (unknown origin) by fluorescence based assay
# Sequence of Histone deacetylase 3 (O15379 whole entry): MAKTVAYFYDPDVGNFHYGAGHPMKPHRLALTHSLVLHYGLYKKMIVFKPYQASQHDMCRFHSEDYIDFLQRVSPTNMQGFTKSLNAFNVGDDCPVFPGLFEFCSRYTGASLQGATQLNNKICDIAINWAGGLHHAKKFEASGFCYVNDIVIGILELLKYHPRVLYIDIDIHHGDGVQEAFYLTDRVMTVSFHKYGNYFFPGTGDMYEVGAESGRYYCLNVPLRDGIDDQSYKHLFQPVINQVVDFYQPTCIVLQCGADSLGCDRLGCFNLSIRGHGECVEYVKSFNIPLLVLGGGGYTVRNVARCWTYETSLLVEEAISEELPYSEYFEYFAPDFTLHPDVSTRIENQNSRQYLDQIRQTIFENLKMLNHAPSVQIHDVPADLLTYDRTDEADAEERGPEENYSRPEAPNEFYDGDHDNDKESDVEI
smiles,measurement,setting,value
Cc1c(F)c(N)cc(C(=O)Nc2cc(-c3ccc(C(=O)N4CCOCC4)cc3)ccc2N2CCN(C)CC2)c1Cl,inhibition of growth at 0.5 µM,[1],65.2%
same,inhibition of growth at 0.05 µM,[2],34.5%
same,Activity,[3],69.5%
same,inhibition of growth at 1 µM,[4],52.1%
same,inhibition of growth at 0.2 µM,[5],48%
same,inhibition of growth at 1 µM,[6],57.4%
same,inhibition of growth at 0.1 µM,[7],88.1%
same,inhibition of growth at 2 µM,[8],95.2%
same,inhibition of growth at 2 µM,[9],89.4%
same,inhibition of growth at 0.4 µM,[10],25.5%
same,inhibition of growth at 0.5 µM,[11],51.7%
same,inhibition of growth at 0.5 µM,[12],58.9%
same,inhibition of growth at 0.1 µM,[13],34.4%
same,inhibition of growth at 0.1 µM,[14],42.8%
same,inhibition of growth at 0.2 µM,[15],23.9%
same,Activity,[16],33.87%
same,viability at 0.2 µM,[17],90.3%
same,viability at 0.6 µM,[18],9.67%
same,inhibition of growth at 0.2 µM,[19],60.3%
same,inhibition of growth at 0.1 µM,[20],59%
Cc1c(F)c(N)cc(C(=O)Nc2cc(-c3ccc(C(=O)NCc4ccc(/C=C/C(=O)NO)cc4)cc3)ccc2N2CCN(C)CC2)c1Cl,Activity,[21],1.84%
same,IC50,[22],> 10000 nM
same,IC50,[23],400 nM
same,IC50,[24],5300 nM
same,inhibition in vivo at 10 mg/kg,[25],42.3%
same,IC50,[26],131 nM
same,IC50,[27],70 nM
same,IC50,[28],296 nM
